From PubChem BioAssay AID248 (DTP/NCI, 2004)
Values joined by “and” are separate entries in the source; they are usually repeats but may differ in a detail not shown here. Equal entries are not always repeated. Toxic doses and inconclusive results are not listed.

System: L1210 leukemia ip in BDF1 mice, survival T/C
Assay: NCI In Vivo Anticancer Drug Screen. Data for tumor model L1210 Leukemia (intraperitoneal) in B6D2F1 (BDF1) mice
Details: endpoint: mean survival time, higher = longer survival
How it was run: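 Value reflects the ratio of survival in compound-treated mice to survival in vehicle-treated controls, with both groups carrying the same transplanted tumor.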

[1] = dose: 100.0 mg/kg/injection, schedule: Q04DX003 (ip), vehicle: Klucel (hydroxypropylcellulose) (HPC)
[2] = dose: 200.0 mg/kg/injection, schedule: Q04DX003 (ip), vehicle: Klucel (hydroxypropylcellulose) (HPC)
[3] = dose: 400.0 mg/kg/injection, schedule: Q04DX003 (ip), vehicle: Klucel (hydroxypropylcellulose) (HPC)
[4] = dose: 50.0 mg/kg/injection, schedule: Q01DX009 (ip), vehicle: Klucel (hydroxypropylcellulose) (HPC)
[5] = dose: 100.0 mg/kg/injection, schedule: Q01DX009 (ip), vehicle: Klucel (hydroxypropylcellulose) (HPC)
[6] = dose: 100.0 mg/kg/injection, schedule: Q01DX009 (ip), vehicle: saline with Tween-80
[7] = dose: 200.0 mg/kg/injection, schedule: Q01DX009 (ip), vehicle: Klucel (hydroxypropylcellulose) (HPC)
[8] = dose: 200.0 mg/kg/injection, schedule: Q01DX009 (ip), vehicle: saline with Tween-80
[9] = dose: 100.0 mg/kg/injection, schedule: Q01DX001 (ip), vehicle: saline
[10] = dose: 200.0 mg/kg/injection, schedule: Q01DX001 (ip), vehicle: saline

For `COc1cc(C(=O)O)ccc1OCCNS(C)(=O)=O`, the T/C (dose: 100.0 mg/kg/injection, schedule: Q01DX001 (ip), vehicle: Klucel (hydroxypropylcellulose) (HPC)) was 96 % of control, the T/C [1] was 105 % of control and the T/C (dose: 200.0 mg/kg/injection, schedule: Q01DX001 (ip), vehicle: Klucel (hydroxypropylcellulose) (HPC)) was 102 % of control. The T/C [2] was 96 % of control, the T/C (dose: 400.0 mg/kg/injection, schedule: Q01DX001 (ip), vehicle: Klucel (hydroxypropylcellulose) (HPC)) was 100 % of control and the T/C [3] was 94 % of control.

With `CC(C)(C)OC(=O)NC(CSCc1ccccc1)C(=O)O` (stereo not given) the T/C [4] was 98 % of control, the T/C [5] was 92 % of control and the T/C [6] was 91 % of control. The T/C [7] was 98 % of control and the T/C [8] was 89 % of control.

With `CCNc1nc(C)c2nc(C(=O)OCC)c(=O)[nH]c2n1` the T/C [4] was 95 % of control, the T/C [5] was 95 % of control and the T/C [7] was 98 % of control.

In the case of `O=P(Oc1ccccc1)(Oc1ccccc1)c1ccccc1`, the T/C [1] is reported as 95 % of control, the T/C [2] is reported as 98 % of control and the T/C [3] is reported as 98 % of control.

With `Cc1c(Cl)cccc1NC(=O)Sc1ccc(C(C)(C)C)cc1` the T/C [5] was 100 % of control, the T/C [7] was 90 % of control and the T/C (dose: 400.0 mg/kg/injection, schedule: Q01DX009 (ip), vehicle: Klucel (hydroxypropylcellulose) (HPC)) was 98 % of control.

With `Oc1c(Cl)cc(Cl)cc1/C=N/N1CCN(/N=C/c2cc(Cl)cc(Cl)c2O)CC1` the T/C [9] was 87 % of control and the T/C [10] was 87 % of control.

`Cc1cc(C)c(C(=O)CC(=O)c2cccnc2)c(C)c1` was tested, and the T/C (dose: 25.0 mg/kg/injection, schedule: Q01DX001 (ip), vehicle: saline) was 102 % of control, the T/C (dose: 50.0 mg/kg/injection, schedule: Q01DX001 (ip), vehicle: saline) was 101 % of control and 104 % of control and the T/C (dose: 50.0 mg/kg/injection, schedule: Q04DX003 (ip), vehicle: saline) was 97 % of control. For the same compound, the T/C [9] was 102 % of control and 103 % of control, the T/C (dose: 100.0 mg/kg/injection, schedule: Q04DX003 (ip), vehicle: saline) was 97 % of control and the T/C [10] was 97 % of control and 98 % of control. The T/C (dose: 200.0 mg/kg/injection, schedule: Q04DX003 (ip), vehicle: saline) was 98 % of control and the T/C (dose: 400.0 mg/kg/injection, schedule: Q01DX001 (ip), vehicle: saline) was 103 % of control.

For `CCN(CCNC(=O)NC(C)(C)C)c1ccccc1`, the T/C [6] was 115 % of control and 91 % of control, the T/C (dose: 100.0 mg/kg/injection, schedule: Q04DX002 (ip), vehicle: saline with Tween-80) was 96 % of control and 100 % of control and the T/C (dose: 100.0 mg/kg/injection, schedule: Q04DX003 (ip), vehicle: saline with Tween-80) was 97 % of control. The T/C [8] was 97 % of control and 91 % of control, the T/C (dose: 200.0 mg/kg/injection, schedule: Q04DX002 (ip), vehicle: saline with Tween-80) was 96 % of control and 97 % of control and the T/C (dose: 200.0 mg/kg/injection, schedule: Q04DX003 (ip), vehicle: saline with Tween-80) was 106 % of control. For the same compound, the T/C (dose: 400.0 mg/kg/injection, schedule: Q01DX009 (ip), vehicle: saline with Tween-80) was 97 % of control and 88 % of control, the T/C (dose: 400.0 mg/kg/injection, schedule: Q04DX002 (ip), vehicle: saline with Tween-80) was 94 % of control and 89 % of control and the T/C (dose: 400.0 mg/kg/injection, schedule: Q04DX003 (ip), vehicle: saline with Tween-80) was 92 % of control.

`COCCOC` was tested, and the T/C (dose: 86.0 mg/kg/injection, schedule: Q01DX Z (ip), vehicle: saline) was 103 % of control, the T/C (dose: 100.0 mg/kg/injection, schedule: Q04DX003 (ip), vehicle: acetone) was 107 % of control and the T/C (dose: 125.0 mg/kg/injection, schedule: Q01DX Z (ip), vehicle: saline) was 106 % of control. The T/C (dose: 130.0 mg/kg/injection, schedule: Q01DX Z (ip), vehicle: saline) was 106 % of control, the T/C (dose: 200.0 mg/kg/injection, schedule: Q04DX003 (ip), vehicle: acetone) was 102 % of control and the T/C (dose: 250.0 mg/kg/injection, schedule: Q01DX Z (ip), vehicle: saline) was 113 % of control. For the same compound, the T/C (dose: 400.0 mg/kg/injection, schedule: Q04DX003 (ip), vehicle: acetone) was 102 % of control, the T/C (dose: 450.0 mg/kg/injection, schedule: Q01DX Z (ip), vehicle: saline) was 154 % of control and the T/C (dose: 500.0 mg/kg/injection, schedule: Q01DX Z (ip), vehicle: saline) was 116 % of control. For the same compound, the T/C (dose: 675.0 mg/kg/injection, schedule: Q01DX Z (ip), vehicle: saline) was 150 % of control and 160 % of control and the T/C (dose: 1500.0 mg/kg/injection, schedule: Q01DX Z (ip), vehicle: saline) was 96 % of control.
